Results from patent US6436428B1, “Device and method for treating urinary incontinence in females” (Enhance Pharmaceuticals, Inc., priority 2000, dated 2002).

Key:
[1] = oral administration of oxybutynin; cited from earlier work
[2] = Plasma oxybutynin and desethyloxybutynin in rabbits with vaginal inserts; type: in vivo, rabbit; conditions: for plasma concentration: days 1-7; for plasma values at all time periods (day 1-7): 5.0 mg/day vaginal insert
Procedure: 12 rabbits were separated into 4 groups of 3 rabbits each. Under pentobarbital anesthesia (25 mg/kg, iv) A cylinder-shaped, curved silastic insert was placed in the vagina of each rabbit. This was accomplished by the following: a midline laparotomy was performed and after transvaginal insertion the implant was anchored with a single 2.0 silk suture through the outer vaginal wall and knotted to a 1 cm section of a medical-grade tubing to avoid damage to the vaginal wall. The inserts in group one contained vehicle, the inserts in groups 2-4 were calculated to release oxybutynin at rates of 0.5 mg/day; 1 mg/day; and 5 mg/day respectively. The inserts remained in place for 7 days. Samples of blood (2 ml) were collected at 12:00 noon on days 1, 3, 5 and 7. After the last blood sample was obtained, each rabbit was sedated and cystometries were performed. Immediately after the cystometry, the rabbit was euthanized, the lower urinary tract including the vagina was removed and evaluated for irritation. In addition, the bladder was excised and weighed.
The samples of blood were frozen and subsequently analyzed. The oxybutynin and desethyloxybutynin concentrations were quantified.

SMILES	AUC (area under the plasma time concentration curve) of the metabolite relative to oxybutynin [1]	peak blood concentration of the metabolite relative to oxybutynin [1]	plasma concentration ([2]; 0.5 mg/day vaginal insert)	plasma concentration ([2]; 1.0 mg/day vaginal insert)	plasma values at all time periods (day 1-7) [2]	change of plasma concentration between day 1 and 3 ([2]; 0.5 mg/day vaginal insert)	plasma concentration course between days 3 and 7 ([2]; 0.5 mg/day vaginal insert)	change of plasma concentration between day 1 and 3 ([2]; 1.0 mg/day vaginal insert)	plasma concentration course between days 3 and 7 ([2]; 1.0 mg/day vaginal insert)	stable plasma concentration of 1.0 mg/day group relative to 0.5 mg/day group ([2]; vaginal inserts, FIG. 18)	stable plasma concentration of 5.0 mg/day group relative to 1.0 mg/day group ([2]; vaginal inserts, FIG. 18)
CCNCC#CCOC(=O)C(O)(c1ccccc1)C1CCCCC1 (stereo not drawn) [N-desethyloxybutynin]	10-12 times	6-9 times higher	below the level of detection	below the level of detection	stable plasma values	–	–	–	–	–	–
CCN(CC)CC#CCOC(=O)C(O)(c1ccccc1)C1CCCCC1 (stereo not drawn) [oxybutynin, 4-diethylamino-2-butynylphenylcyclohexylglycolate]	–	–	–	–	stable plasma values	increase	stable concentration	increase	stable concentration	approximately twice	approximately 4 fold
